Source: patent publication US9872859B2, “Materials and methods for targeting therapeutic compositions to gut-associated lymphoid tissue (GALT)” (THE FLORIDA INTERNATIONAL UNIVERSITY BOARD OF TRUSTEES, priority 2016, dated 2018)

Assays:
HIV-1 1Ba-L = experiment: Anti-HIV activity in HIV-infected primary human macrophages (p24 ELISA); format: cell-based; details: 70 ug/ml
From the text: The nanodrug was further investigated for anti-HIV activity in primary human macrophage and M-cell culture model, respectively. Human peripheral blood mononuclear cells (PBMC) were isolated from healthy donor and differentiated to macrophages as per previously published protocol^23. Briefly, PBMC were isolated with Ficoll-Hypaque (Pharmacia) gradient and cells were allowed to differentiate for 7 days in the presence of human macrophage colony stimulating factor (MCSF, Sigma) to macrophages. Following 7 days of incubation, macrophages were infected with HIV-1 1Ba-L (NIH AIDS research and reference reagent program. Cat#510) (100 ng/ml) and incubated for 24 hrs. The next day, cells were thoroughly washed to get rid of any unattached virus particle and fresh media was added. At the same time, same concentration (70 ug/ml) of nanodrug and unformulated drug (EFV) were added to these cells separately. The HIV infected macrophages were served as control. The nanodrug/EFV drug treated cells were monitored for up to 10 days along with infected control cells. The cell supernatant was collected at day 0, 1, 3, 5, 7 and 10 days post treatment. The viral p24 level in the supernatant was measured with p24 ELISA assay (Cat. #0801200, Zeptometrix, USA). The minimum assay detection limit for p24 antigen by ELISA was 7.8 pg/ml as provided by the manufacturer. […]

HIV-1Ba-L = experiment: Anti-HIV activity in in vitro M-cell culture model with HIV-infected Raji cells (p24 ELISA); format: cell-based; details: 70 ug/ml; for HIV replication (p24 level in culture supernatant) over time: infected Raji cells
Experimental: The nanodrug was further investigated for anti-HIV activity in primary human macrophage and M-cell culture model, respectively. Simultaneously, a parallel anti-HIV activity study was set up in an in vitro model of M-cell. In this model, Raji cells were exposed with HIV-1Ba-L at the concentration of (100 ng/ml) for 24 hrs in a co-culture and then washed from unattached viral particles^24,25. Following that, same concentration (70 ug/ml) of nanodrug and EFV were added to M-cell culture model separately. […] The untreated Raji cells were kept as a control for all the experiments related to drug activity. In the M-cell culture model, infected Raji cells were also treated with EFV to compare with nanodrug. The effect of nanodrug on HIV replication was measured for up to 10 days post treatment in culture supernatant.

`O=C1Nc2ccc(Cl)cc2[C@@](C#CC2CC2)(C(F)(F)F)O1` [EFV, efavirenz] was tested, and the “HIV replication (p24 level in culture supernatant) over time” value (from here on “HIV replication … over time”) (HIV-1 1Ba-L; day 0-10 post treatment) was “immediate inhibition of viral replication on day 1 and following that there was increase of viral p24 level”, the “p24 level at end of experiment” value (HIV-1 1Ba-L; day 10) was “increased up to the level of untreated cells” and the “p24 level within day 10” value (HIV-1Ba-L; day 10) was “increased closer to the level of untreated cells”. For the same compound, the “HIV replication … over time” value (HIV-1Ba-L; up to day 10) was “immediate reduction of viral replication” and the “HIV replication … over time” value (HIV-1Ba-L; up to day 10, listed as free EFV) was “immediate decrease in viral replication as expected; however, rebound of viral p24 level within day ten”.
